Assay results taken from patent US4529731A, “Thiadiazolediamine derivative with histamine H-2 receptor inhibiting properties” (American Home Products Corporation, priority 1983, dated 1985).
“Also recorded” adds a separate entry of the source.

What was measured:
[1] = tested on: spontaneous gastric acid secretion in cannulated rats; experiment: inhibiting spontaneous gastric acid secretion in cannulated rats; format: in vivo, Male albino Sprague Dawley rats; conditions: for time after which a significant response ceases: cimetidine 80 mg/kg, ranitidine 60 mg/kg
Excerpt: Male albino Sprague Dawley rats (200-300 g), purchased from Canadian Breeding Laboratories, were employed. Two gastric cannulas were implanted surgically in each rat as described by L. E. Borella and F. Herr, Gastroenterology, 61, 345 (1971). The rats were used two to three weeks after the operation at a time when their food intake and weight gain were similar to the food intake and weight gain of unoperated litter mates. […] Prior to each experiment, the plugs of the stomach cannulas of each rat were removed and the debris present in the stomach was flushed out with tepid saline passed through the cannulas. Thereafter, the lumen of the stomach was continuously perfused with saline introduced into the stomach through the forestomach cannula at a rate of 0.8-1.2 ml/min. […] On the basis of the hourly acid output, the rats were divided into equal groups so that the average acid output of all groups was similar. Saline (vehicle) or saline suspensions or solutions of the test compounds were administered intragastrically (i.g.) through the forestomach cannula, after having closed the antral cannula. During the one hour absorption period, the stomachs of the rats were not perfused. […] The average post-treatment hourly acid outputs of the test compound groups were compared to that of the saline group and the percent inhibition of acid output was calculated. Multiple statistical comparisons between groups was done using Dunnet's test, C. W. Dunnet, Journal of American Statistical Association, 50, 1096 (1955).

[2] = toxicity (statement in words)
histamine H-2 receptors = experiment: inhibition of histamine H-2 receptors (statement in words)
[3] = tested on: cold-restraint-induced gastric lesions; experiment: development of cold-restraint-induced gastric lesions (ulcers); format: in vivo, male albino rats (Sprague-Dawley); conditions: p.o.; for ULCER SCORE (MEAN ± S.E.): number of ulcers in glandular stomach
Description: Senay and R. J. Levine, Proc. Soc. Exp. Biol. Med., 124, 1221 (1967).
More explicitly exemplified, the beneficial effects were evaluated as follow: Food was withheld from male albino rats (165-175 g, Sprague-Dawley, Canadian Breeding Laboratories) for 24 hours but water was freely available. The object compound was administered orally in one milliliter of a liquid vehicle to the animals 30 minutes before placing the animals into restrainers. Just prior to being restrained, each animal was given orally 50 mg of sodium taurocholate. The vehicle empoloyed was saline containing polysorbate 80 (oleate ester of sorbitol and its anhydrides copolymerized with ethylene oxide), one drop per five milliliters of saline. The restrainers were made of plexiglass and restricted the movement of the rat to a minimum. The restrainers were placed in a cold environment (4°-5° C.) for three hours. The animals were sacrificed by cervical dislocation, the stomachs removed and the number of ulcers in the glandular portion of the stomach determined.

[4] = 1 hr after dosing, peroral, object compound 80, cimetidine 80, ranitidine 60 mg/kg
[5] = 2 hr after dosing, peroral, object compound 80, cimetidine 80, ranitidine 60 mg/kg
[6] = 3 hr after dosing, peroral, object compound 80, cimetidine 80, ranitidine 60 mg/kg
[7] = 4 hr after dosing, peroral, object compound 80, cimetidine 80, ranitidine 60 mg/kg, cimetidine value = last statistically significant (*)
[8] = 5 hr after dosing, peroral, object compound 80, cimetidine 80, ranitidine 60 mg/kg, ranitidine value = last statistically significant (*)
[9] = 6 hr after dosing, peroral, object compound 80, ranitidine 60 mg/kg
[10] = 7 hr after dosing, peroral, object compound 80, ranitidine 60 mg/kg

SMILES | % INHIBITION OF ACID OUTPUT AT VARIOUS TIMES (HR) AFTER DOSING [1, 4] [%] | % INHIBITION OF ACID OUTPUT AT VARIOUS TIMES (HR) AFTER DOSING [1, 5] [%] | % INHIBITION OF ACID OUTPUT AT VARIOUS TIMES (HR) AFTER DOSING [1, 6] [%] | % INHIBITION OF ACID OUTPUT AT VARIOUS TIMES (HR) AFTER DOSING [1, 7] [%] | % INHIBITION OF ACID OUTPUT AT VARIOUS TIMES (HR) AFTER DOSING [1, 8] [%] | % INHIBITION OF ACID OUTPUT AT VARIOUS TIMES (HR) AFTER DOSING [1, 9] [%] | % INHIBITION OF ACID OUTPUT AT VARIOUS TIMES (HR) AFTER DOSING [1, 10] [%] | time after which a significant response ceases ([1]; peroral) [h] | also measured
CN(C)CCNc1n[s+]([O-])nc1NCCCOc1cccc(CN2CCCCC2)c1 (stereo not shown) [Object compound, N-[2-(dimethylamino)ethyl]-N'-[3-[3-[(1-piperidinyl)methyl]phenoxy]propyl]-1,2,5-thiadiazole-3,4-diamine, 1-oxide] | 88 | 95 | 96 | 95 | 94 | 85 | 61 |  | % INHIBITION OF ACID OUTPUT AT VARIOUS TIMES (HR) AFTER DOSING ([1]; 8 hr after dosing, peroral, object compound 80 mg/kg): 52%; % INHIBITION OF ACID OUTPUT AT VARIOUS TIMES (HR) AFTER DOSING ([1]; 9 hr after dosing, peroral, object compound 80 mg/kg): 63%; % INHIBITION OF ACID OUTPUT AT VARIOUS TIMES (HR) AFTER DOSING ([1]; 10 hr after dosing, peroral, object compound 80 mg/kg): 64%; % INHIBITION OF ACID OUTPUT AT VARIOUS TIMES (HR) AFTER DOSING ([1]; 18 hr after dosing, peroral, object compound 80 mg/kg): 32%; % INHIBITION OF ACID OUTPUT AT VARIOUS TIMES (HR) AFTER DOSING ([1]; 19 hr after dosing, peroral, object compound 80 mg/kg, last statistically significant value (*)): 29%; % INHIBITION OF ACID OUTPUT AT VARIOUS TIMES (HR) AFTER DOSING ([1]; 20 hr after dosing, peroral, object compound 80 mg/kg): 7%; % INHIBITION OF 3 HOURS GASTRIC ACID OUTPUT ([1]; peroral dose 20 mg/kg, rat): 36%; % INHIBITION OF 3 HOURS GASTRIC ACID OUTPUT ([1]; peroral dose 40 mg/kg, rat): 65%; % INHIBITION OF 3 HOURS GASTRIC ACID OUTPUT ([1]; peroral dose 80 mg/kg, rat): 74%; duration of effect compared with cimetidine and ranitidine ([1]; peroral, object compound 80, cimetidine 80, ranitidine 60 mg/kg): longer acting effect; duration of action ([1]; rat, in vivo): long acting properties; order of toxicity [2]: relatively low order of toxicity; inhibition of histamine H-2 receptors (histamine H-2 receptors): effective inhibitor of histamine H-2 receptors; also recorded: specifically inhibits H-2 histamine receptors; % INHIBITION (ulcer score) ([3]; 1 mg/kg): 44%; ULCER SCORE (MEAN ± S.E.) ([3]; 1 mg/kg): 10 ± 9; % INHIBITION (ulcer score) ([3]; 5 mg/kg, * p < 0.05): 89%; ULCER SCORE (MEAN ± S.E.) ([3]; 5 mg/kg): 2 ± 1; % INHIBITION (ulcer score) ([3]; 20 mg/kg, ** p < 0.01): 95%; ULCER SCORE (MEAN ± S.E.) ([3]; 20 mg/kg): 0.9 ± 0.5
CN/C(=N/CCSCc1nc[nH]c1C)NC#N [cimetidine, reference compound] | 84 | 84 | 63 | 52 | 3 |  |  | 5 | 
CNC(=C[N+](=O)[O-])NCCSCc1ccc(CN(C)C)o1 [ranitidine, reference compound] | 69 | 81 | 65 | 63 | 44 | 39 | 6 | 6 | 
